Results taken from PMC8464850, “Sulfonium Ligands of the α7 nAChR” (Molecules, 2021).
Where a name gives a salt, the structure may show the parent alone.

Legend:
Type in all cases: cell-based
[1] = target: T1, α7 nAChR (Homo sapiens, UniProt P36544); test: α7 responses on co-application with the type II PAM TQS (silent agonism); details: for α7 functional classification (silent agonist / inactive): inactive alone, active with a PAM = silent agonist
T1 construct: expressed in transfected cells; host or cells: Xenopus laevis oocytes (injected RNA)
T1 sequence (P36544 23-502): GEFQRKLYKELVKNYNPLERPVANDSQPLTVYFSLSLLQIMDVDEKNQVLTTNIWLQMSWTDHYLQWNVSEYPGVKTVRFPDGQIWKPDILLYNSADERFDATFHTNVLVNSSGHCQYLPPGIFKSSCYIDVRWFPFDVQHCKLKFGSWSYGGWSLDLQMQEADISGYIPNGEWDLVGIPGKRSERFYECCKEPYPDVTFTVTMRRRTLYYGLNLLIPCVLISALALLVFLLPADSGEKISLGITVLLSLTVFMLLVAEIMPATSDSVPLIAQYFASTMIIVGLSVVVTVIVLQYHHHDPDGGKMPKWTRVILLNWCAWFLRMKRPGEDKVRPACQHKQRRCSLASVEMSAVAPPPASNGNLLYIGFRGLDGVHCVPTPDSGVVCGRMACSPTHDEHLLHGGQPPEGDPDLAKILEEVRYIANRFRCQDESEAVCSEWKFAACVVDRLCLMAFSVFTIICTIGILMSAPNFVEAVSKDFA
Experimental: (§1) Compounds were co-applied at a concentration of 100 µM with 30 µM racemic TQS (Figure 3A). All compounds except S4, S5, and S8 gave large responses when co-applied with TQS, consistent with silent agonism of α7 (see Table S1 for ANOVA). Active compounds were also evaluated across a range of concentrations with the alternative PAM, PNU-120596 (Figure 3B). The curve-fit values for Imax (Table 1) should be taken only as approximation of the relative efficacies of the compounds, due to the large variability frequently observed in PNU-120596-potentiated responses, as evidenced by the large SEMs of the responses obtained with high concentrations.
(§2) Figure 3 Responses of α7 nAChR to sulfonium compounds coapplied with PAMs. (A) Potentiation of α7 responses with 30 µM racemic TQS. Shown are the average net-charge responses of seven or eight oocytes ± SEM. (B) Concentration-response studies of peak currents generated by compounds that gave positive responses with TQS, coapplied with 10 µM PNU-120596. Each point represents the average (±SEM) of at least four oocytes.
The human nAChR clones were obtained from Jon Lindstrom (University of Pennsylvania, Philadelphia, PA, USA). Mouse muscle subunit clones were obtained from Jim Boulter (Salk Institute, La Jolla, CA, USA) and Paul Gardner (Dartmouth, Hanover, NH, USA). The human resistance-to-cholinesterase 3 (RIC3) clone was obtained from Millet Treinin (Hebrew University, Jerusalem, Israel) and co-injected with α7 to improve the level and speed of α7 receptor expression without affecting the pharmacological properties of the receptors. Subsequent to linearization and purification of the plasmid DNAs, RNAs were prepared using the mMessage mMachine in vitro RNA transcription kit (Ambion, Austin, TX, USA).
(§3) Experiments were conducted using OpusXpress 6000A (Molecular Devices, Union City, CA, USA). Both the voltage and current electrodes were filled with 3 M KCl. Oocytes were voltage-clamped at −60 mV at room temperature (24 °C). The oocytes were bath-perfused with Ringer’s solution (115 mM NaCl, 2.5 mM KCl, 1.8 mM CaCl2, 10 mM HEPES, and 1 μM atropine, pH 7.2) at 2 mL/min for α7 receptors, or 4 mL/min for heteromeric nAChR. To evaluate the effects of experimental compounds, responses were compared to control ACh-evoked responses, defined as the average of two initial applications of ACh made before test applications. ACh control concentrations were 60 µM for α7 receptors; 100 µM for α4(3)β2(2) and α3β4 receptors; 30 µM for α4β2α6β2β3 and muscle-type (αβ1εδ) receptors; and 10 µM for α4(3)β2(2) and α4(2)β2(2)α5 receptors.
(§4) Solutions were applied from 96-well plates via disposable tips. Drug applications were 12 s in duration, followed by 181 s washout periods for α7 receptors, or 6 s in duration followed by 301 s washout periods for heteromeric nAChR. The responses were calculated as both peak current amplitudes and net charge, as previously described. Data were collected at 50 Hz, filtered at 20 Hz for α7 receptors or filtered at 5 Hz for heteromeric nAChR, and analyzed by Clampfit (Molecular Devices, San Jose, CA, USA) and Excel (Microsoft, Redmond, WA, USA). Data were expressed as means ± SEM from at least four oocytes for each experiment and plotted with Kaleidagraph 4.5.2 (Abelbeck Software, Reading, PA, USA). Multi-cell averages were calculated for comparisons of complex responses. Averages of the normalized data were calculated for each of the 10,322 points in each of the 206.44 s traces (acquired at 50 Hz), as well as the standard errors for those averages.

[2] = target: T1, α7 nAChR; test: α7 concentration-response on co-application with 10 µM PNU-120596; details: peak currents, co-applied with 10 µM PNU-120596, Hill fit; for IMax (PNU Activation): approximation only
Experimental: as §1, §2, §3, §4

[3] = target: T1, α7 nAChR; test: Inhibition of α7 ACh-evoked responses; details: for effect on 60 µM ACh response at 1 mM: compound 1 mM co-applied with 60 µM ACh
Experimental: Figure 4 Effects sulfonium compounds on α7 ACh-evoked net-charge responses. (A) Effects of the sulfonium compounds at 100 µM co-applied with 60 µM relative to responses to 60 µM ACh applied alone. Data are the averages (±SEM) from seven or eight cells under each condition. (B) Effects of select sulfonium compounds at 1 mM co-applied with 60 µM relative to responses to 60 µM ACh applied alone. Data are the averages (±SEM) from seven or eight cells under each condition. Statistical significance was determined by pairwise t-test with p values corrected for multiple comparisons; * p < 0.05, ** p < 0.001.
The sulfonium compounds that were active with TQS but produced little inhibition of ACh response at a concentration of 100 µM were tested as inhibitors of ACh response at a concentration of 1 mM (Figure 4B).
We tested S8 across a range of concentrations for its ability to inhibit 60 µM ACh responses (Figure 5A). Note that we use 60 µM as an ACh control because this concentration gives nearly maximal (93%) net-charge responses, with the time course of the responses roughly following the speed of solution exchange. […] We tested whether inhibition of α7 responses by S8 was surmountable by increasing ACh concentration, consistent with a competitive mechanism of inhibition. However, since α7 responses to concentrations of ACh greater than 60 µM occur more rapidly than solution exchange in the chamber, we first pre-applied 5 µM S8 prior to the co-application of 5 µM S8 with either 60 µM or 1 mM ACh (Figure 5B). The 60 µM net-charge responses were reduced to 28 ± 2% of controls (n = 8) and 60 µM peak currents to 21 ± 3 % controls. The 1 mM net-charge responses were reduced to 56 ± 6 % of those obtained without S8 co-application, although the S8 co-application increased the peak-current amplitudes compared to 60 µM controls from 1.78 ± 0.15 to 3.72 ± 0.81 (n = 8).
Figure 5 Inhibition of α7 ACh-evoked responses by S8. (A) Concentration-response studies of α7 net-charge responses to 60 µM ACh co-applied with increasing concentrations of S8. To confirm the stability of the ACh responses, applications of ACh plus S8 were alternated with applications of ACh alone. Data are the averages of eight cells (±SEM). See text for curve-fit values. (B) Effects of 5 µM S8 on responses to either 60 µM or 1 mM ACh. The traces shown across the top are the averaged raw data from seven cells, each normalized to the peak current of the first ACh control response shown. In order to assure that the S8 was present at 5 µM throughout the ACh-evoked responses, a 30 s pre-application was made of 5 µM S8 alone. The lower traces show averaged responses to 60 µM or 1 mM ACh alone or with the 5 µM S8 pre- and co-application. The details of the data are described in Methods.
as §3
Solutions were applied from 96-well plates via disposable tips. Drug applications were 12 s in duration, followed by 181 s washout periods for α7 receptors, or 6 s in duration followed by 301 s washout periods for heteromeric nAChR. […]

Row | Compound | relative activity as α7 silent agonist / desensitizer (rank order) ([1]; 100 µM with 30 µM TQS, Figure 3A) | α7 functional classification (silent agonist / inactive) [1] | IMax (PNU Activation) [2] | effect on 60 µM ACh response at 1 mM [3] | inhibition of responses to 60 µM ACh ([3]; compound co-applied at 100 µM, net charge) | response when co-applied with TQS ([1]; 100 µM compound with 30 µM racemic TQS, net charge) | EC50 ([2]; read-out: EC50 (PNU Activation))
1 | C[S+](C)c1ccc(O)cc1 [Compound S9, (4-hydroxyphenyl)dimethylsulfonium methyl sulfate] | most desensitizing | silent agonist activity | 3.98 ± 0.14 | significant inhibition | no inhibition | – | –
2 | C[S+](C)C.[I-] [Compound S1, trimethylsulfonium iodide] | – | – | 9.1 ± 0.05 | – | – | produced potentiated α7 currents | –
3 | C[S+](C)c1cc([N+](=O)[O-])ccc1O.[Br-] [Compound S10, (2-hydroxy-5-nitrophenyl)dimethylsulfonium bromide] | – | silent agonist activity | 4.6 ± 0.1 | increased the amplitude of the ACh-evoked responses | – | – | 45.5 ± 50.6 µM
